IC50 data for one compound are collected here from ChEMBL document CHEMBL1150800, “Multiple-dose escalation study of the safety, pharmacokinetics, and biologic activity of oral AMD070, a selective CXCR4 receptor inhibitor, in human subjects” (Antimicrob Agents Chemother, 2007).

Converted amounts (≈) assume the structure as drawn.

The subject of this assay is Human immunodeficiency virus 1. The assay is described as follows: Antiviral activity against HIV1 NL4.3 in human MT4 cells. The assay is classed as functional, organism-based. Conditions: Human immunodeficiency virus 1, MT4.

For the compound `c1cc(CN2CCCNCCNCCCNCC2)ccc1CN1CCCNCCNCCCNCC1` [PLERIXAFOR], inhibition was half-maximal at 1.5 ng/mL (≈ 2.98 nM) (IC50).

By IC50 is commonly meant the midpoint of a concentration-inhibition curve.
